Values after ≈ are worked out from the molar mass of the structure shown. Structures can show the parent of a compound that is named as a salt. Where two headings read alike, the source gives them in different places.
Assays:
[1] = In vivo pharmacokinetic assay in rats; conditions: male, SD, rat, in vivo
Method: (§1) In vivo pharmacokinetic assay in rats was performed, wherein the used rats were 6 male SD rats weighing 180-240 g and fasted overnight. […] Blood samples were centrifuged at 8000 rpm for 6 min at 4° C., and plasma was collected and stored at −20° C. The plasma at each time point was taken and added with 3-5 times of acetonitrile solution containing the internal standard for mixing, and the mixed solution was subjected to vortex mixing for 1 min, and centrifuging at 4° C. for 10 min at 13000 rpm. The supernatant was taken and added with 3 times of water for mixing. A proper amount of the mixed solution was taken for LC-MS/MS analysis. The major pharmacokinetic parameters were analyzed using WinNonlin 7.0 software and a non-compartmental model.

[2] = Pharmacokinetic assay (crystal form) in mice; type: in vivo; conditions: male, ICR, mouse, plasma, oral intragastric administration 10 mg/kg
Method: as §1, with “in mice” for “in rats”, “used mice” for “used rats”, “were 9” for “were 6”, “male ICR mice” for “male SD rats”, “weighing 20-25” for “weighing 180-240”, “overnight. 9 mice were taken and orally intragastrically administered with 10 mg/kg of the compound.” for “overnight.”

[3] = In vivo pharmacokinetic assay in mice; conditions: male, ICR, mouse, in vivo
Method: as §1
In vivo pharmacokinetic assay in mice was performed, wherein the used mice were 18 male ICR mice weighing 20-25 g and fasted overnight. […] The rest of the procedure was performed in the same manner as in the pharmacokinetic assay in rats.

[4] = Thermodynamic solubility assay; type: physicochemical; conditions: thermodynamic from solid
Method: The compounds were weighed out accurately, added to the prepared phosphate buffered saline at pH 7.4, FeSSIF solution at pH 5.8 and FaSSGF solution at pH 1.6 to prepare a solution at a concentration of 4 mg/mL, and the prepared solution was shaken at 1000 rpm for 1 h, and then incubated overnight at room temperature. The incubated solution was centrifuged at 12000 rpm for 10 min to remove undissolved particles, and the supernatant was transferred to a new centrifuge tube. After the supernatant was diluted properly, the supernatant was added with an acetonitrile solution containing an internal standard, and quantified by adopting a standard curve prepared by the same matrix.

[5] = Stability assay of human liver microsome; type: in vitro ADME; conditions: human liver microsomes, NADPH, 37° C.
Method: The stability of human liver microsome was detected by in vitro co-incubation of compounds with human liver microsomes. Test compounds were first prepared as 10 mM stock solutions in DMSO solvent, followed by dilution of the compounds to 0.5 mM using acetonitrile. […] The deep-well plate was taken, […] was added to each well, then 15 μL of pre-warmed 6 mM NADPH solution was added to the plate to start the reaction, and the plate was incubated at 37° C. […] The supernatant was taken after centrifugation, and added with purified water at a ratio of 1:1 for LC-MS/MS detection to obtain the ratio of peak area of compound to peak area of internal standard at each time point. […] T1/2 was calculated using Excel.

Solid stability, 1 week = type: physicochemical; conditions: for Purity (area %): HPLC; for Crystal form change: XRPD
Method: The crystal form A of hydrochloride, the crystal form A of fumarate, the crystal form A of benzenesulfonate and the free base crystal form A prepared repeatedly were placed at 25° C./60% RH and 40° C./75% RH for 1 week, and then the physical and chemical stability of the samples were tested by XRPD and HPLC. […] No significant purity decrease or crystal form transformation occurred in any of the other samples after being placed under 2 conditions for 1 week.

[6] = Dynamic solubility in water and three biological vehicles; type: physicochemical; conditions: for Crystal form change: XRPD of solid; for pH: filtrate
Method: The dynamic solubility of the crystal form A of hydrochloride, the crystal form A of fumarate, the crystal form A of benzenesulfonate and the free base crystal form A prepared repeatedly was evaluated in water and three biological vehicles. […] After centrifugation of the samples at each time point (0.45 μm PTFE filter head), the filtrate was determined for HPLC concentration and pH, and the centrifuged solid samples were tested for XRPD.

[7] = Polarizing microscope (PLM) image, particle size; type: physicochemical; conditions: room temperature
Text: The polarizing microscope data are acquired by an Axio Lab. A1 upright microscope at room temperature.

[8] = Hygroscopicity by dynamic vapor sorption (DVS); type: physicochemical; conditions: for After DVS test Whether the crystal form is changed: 0% RH to 95% RH to 0% RH; for After DVS test Whether the crystal form is changed / Hygroscopicity / Vapor sorption (25° C./80% RH): 25° C.; for Hygroscopicity / Vapor sorption (25° C./80% RH): DVS; for Risk evaluation: hygroscopicity evaluation
Method: Dynamic vapor sorption (DVS) curves are acquired on a DVS Intrinsic in SMS (Surface Measurement System). The relative humidity at 25° C. is corrected with the deliquescence points of LiCl, Mg(NO3)2 and KCl.
Hygroscopicity of the crystal form A of hydrochloride, the crystal form A of fumarate, the crystal form A of benzenesulfonate and the free base crystal form A prepared repeatedly was evaluated using a dynamic vapor sorption (DVS) instrument. Starting at 0% relative humidity (0% RH), the test acquired the percentage change of mass of the sample when humidity changed (0% RH to 95% RH to 0% RH) at a constant temperature of 25° C.

[9] = intravenous injection 1 mg/kg, read-out: Vz
[10] = oral intragastric administration 10 mg/kg

O=C(COCCc1cnn[nH]1)N1Cc2cnc(NC3Cc4ccccc4C3)nc2C1 [Control compound, reference compound]
AUC(0-t) ([1]; intravenous injection 1 mg/kg): 580 ng·h/mL | clearance ([1]; intravenous injection 1 mg/kg): 29.3 mL/min/kg | half-life ([1]; intravenous injection 1 mg/kg): 27 min | Vd [1, 9]: 1.12 L/kg | AUC(0-t) [1, 10]: 4870 ng·h/mL | Cmax [1, 10]: 2590 ng/mL | Tmax [1, 10]: 25.2 min | half-life [1, 10]: 78.6 min | AUC(0-t) [2]: 2900 ng·h/mL | Cmax [2]: 2040 ng/mL | Tmax [2]: 15 min | half-life [2]: 49.8 min | AUC(0-t) ([3]; intravenous injection 1 mg/kg): 290 ng·h/mL | clearance ([3]; intravenous injection 1 mg/kg): 57.5 mL/min/kg | half-life ([3]; intravenous injection 1 mg/kg): 20.4 min | Vd [3, 9]: 1.67 L/kg | AUC(0-t) [3, 10]: 2900 ng·h/mL | Cmax [3, 10]: 2040 ng/mL | Tmax [3, 10]: 15 min | half-life [3, 10]: 49.8 min | solubility ([4]; aqueous buffer, PBS, pH 7.4, room temperature overnight, read-out: Solubility PBS (pH 7.4)): 6.3 mg/mL (≈ 15.5 mM) | solubility ([4]; fassgf or other biorelevant, FaSSGF, pH 1.6, room temperature overnight, read-out: Solubility FaSSGF (pH 1.6)): 66.5 mg/mL (≈ 164 mM) | solubility ([4]; FeSSIF, pH 5.8, room temperature overnight, read-out: Solubility FeSSIF (pH 5.8)): 18.3 mg/mL (≈ 45.1 mM) | Remaining percentage of compound after 30 min of incubation (%) [5]: 41.2% | half-life at 1.5 μM [5]: 24.1 min

C[C@H](Cc1cnn[nH]1)OCC(=O)N1Cc2cnc(NC3Cc4ccccc4C3)nc2C1 [Free base crystal form A]
Purity/initial purity (%) (Solid stability, 1 week; 25° C./60% RH): 100.0% | Purity (area %) (Solid stability, 1 week; 25° C./60% RH): 98.67 area % | Crystal form change (Solid stability, 1 week; 25° C./60% RH): No | Purity/initial purity (%) (Solid stability, 1 week; 40° C./75% RH): 100.0% | Purity (area %) (Solid stability, 1 week; 40° C./75% RH): 98.60 area % | Crystal form change (Solid stability, 1 week; 40° C./75% RH): No | Crystal form change ([6]; FaSSIF, 1 h): No | Crystal form change ([6]; FaSSIF, 4 h): No | Crystal form change ([6]; FaSSIF, 24 h): No | Crystal form change ([6]; FeSSIF, 1 h): No | Crystal form change ([6]; FeSSIF, 4 h): No | Crystal form change ([6]; FeSSIF, 24 h): No | Crystal form change ([6]; H2O, 1 h): No | Crystal form change ([6]; H2O, 4 h): No | Crystal form change ([6]; H2O, 24 h): No | Crystal form change ([6]; SGF, 1 h): No | Crystal form change ([6]; SGF, 4 h): No | Crystal form change ([6]; SGF, 24 h): No | pH ([6]; FaSSIF, 1 h): 6.5 | pH ([6]; FaSSIF, 4 h): 6.6 | pH ([6]; FaSSIF, 24 h): 6.6 | pH ([6]; FeSSIF, 1 h): 5.1 | pH ([6]; FeSSIF, 4 h): 5.1 | pH ([6]; FeSSIF, 24 h): 5.1 | pH ([6]; H2O, 1 h): 8.4 | pH ([6]; H2O, 4 h): 8.4 | pH ([6]; H2O, 24 h): 8.6 | pH ([6]; SGF, 1 h): 1.9 | pH ([6]; SGF, 4 h): 1.9 | pH ([6]; SGF, 24 h): 2.0 | particle size [7]: less than 50 μm | After DVS test Whether the crystal form is changed [8]: No | Hygroscopicity [8]: Slightly | Vapor sorption (25° C./80% RH) [8]: 1.03% | Risk evaluation [8]: None

C[C@H](Cc1cnn[nH]1)OCC(=O)N1Cc2cnc(NC3Cc4ccccc4C3)nc2C1 [Crystal form A of fumarate]
Purity/initial purity (%) (Solid stability, 1 week; 25° C./60% RH): 100.1% | Purity (area %) (Solid stability, 1 week; 25° C./60% RH): 99.28 area % | Crystal form change (Solid stability, 1 week; 25° C./60% RH): No | Purity/initial purity (%) (Solid stability, 1 week; 40° C./75% RH): 100.1% | Purity (area %) (Solid stability, 1 week; 40° C./75% RH): 99.33 area % | Crystal form change (Solid stability, 1 week; 40° C./75% RH): No | Crystal form change ([6]; H2O, 1 h): No | Crystal form change ([6]; H2O, 4 h): No | Crystal form change ([6]; H2O, 24 h): No | Crystal form change ([6]; SGF, 1 h): No | Crystal form change ([6]; SGF, 4 h): No | Crystal form change ([6]; SGF, 24 h): No | pH ([6]; FaSSIF, 1 h): 4.9 | pH ([6]; FaSSIF, 4 h): 4.4 | pH ([6]; FaSSIF, 24 h): 4.2 | pH ([6]; FeSSIF, 1 h): 4.8 | pH ([6]; FeSSIF, 4 h): 4.9 | pH ([6]; FeSSIF, 24 h): 4.8 | pH ([6]; H2O, 1 h): 3.6 | pH ([6]; H2O, 4 h): 3.7 | pH ([6]; H2O, 24 h): 3.6 | pH ([6]; SGF, 1 h): 1.9 | pH ([6]; SGF, 4 h): 1.9 | pH ([6]; SGF, 24 h): 1.9 | particle size [7]: less than 50 μm | After DVS test Whether the crystal form is changed [8]: No | Hygroscopicity [8]: Slightly | Vapor sorption (25° C./80% RH) [8]: 0.60% | DVS curve vapor sorption ([8]; at 0% RH to 80% RH): less than 0.60% | Risk evaluation [8]: None
